| melting point | SMILES |
| --- | --- |
| 262 °C | NS(=O)(=O)c1cccc(-c2noc(-c3cnn4c(C(F)(F)F)cc(-c5ccc(C(F)(F)F)cc5)nc34)n2)c1 [Example 2, 3-{5-[7-Trifluoromethyl-5-(4-trifluoromethyl-phenyl)-pyrazolo[1,5-a]pyrimidin-3-yl]-[1,2,4]oxadiazol-3-yl}-benzenesulfonamide] |
| 283 °C | NS(=O)(=O)c1ccc(-c2noc(-c3cnn4c(C(F)F)cc(-c5ccc(C(F)(F)F)cc5)nc34)n2)cc1 [Example 4, 4-{5-[7-Difluoromethyl-5-(4-trifluoromethyl-phenyl)-pyrazolo[1,5-a]pyrimidin-3-yl]-[1,2,4]oxadiazol-3-yl}-benzenesulfonamide] |
| 267 °C | NS(=O)(=O)c1cccc(-c2noc(-c3cnn4c(C(F)F)cc(-c5ccc(C(F)(F)F)cc5)nc34)n2)c1 [Example 5, 3-{5-[7-Difluoromethyl-5-(4-trifluoromethyl-phenyl)-pyrazolo[1,5-a]pyrimidin-3-yl]-[1,2,4]oxadiazol-3-yl}-benzenesulfonamide] |
| 247 °C | NS(=O)(=O)c1cccc(-c2noc(-c3cnn4c(C(F)(F)F)cc(-c5ccc(Cl)cc5)nc34)n2)c1 [Example 10, 3-{5-[5-(4-Chloro-phenyl)-7-trifluoromethyl-pyrazolo[1,5-a]pyrimidin-3-yl]-[1,2,4]oxadiazol-3-yl}-benzenesulfonamide] |
| 296 °C | NS(=O)(=O)c1ccc(-c2noc(-c3cnn4c(C(F)(F)F)cc(-c5ccc(Cl)cc5)nc34)n2)cc1 [Example 12, 4-{5-[5-(4-Chloro-phenyl)-7-trifluoromethyl-pyrazolo[1,5-a]pyrimidin-3-yl]-[1,2,4]oxadiazol-3-yl}-benzenesulfonamide] |
| 292 °C | NS(=O)(=O)c1ccc(-c2noc(-c3cnc4c(C(F)(F)F)cc(-c5ccc(C(F)(F)F)cc5)cn34)n2)cc1 [Example 13, 4-{5-[8-Trifluoromethyl-6-(4-trifluoromethyl-phenyl)-imidazo[1,2-a]pyridin-3-yl]-[1,2,4]oxadiazol-3-yl}-benzenesulfonamide] |
| 292 °C | NS(=O)(=O)c1ccc(-c2nc(-c3cnn4c(C(F)(F)F)cc(-c5ccc(C(F)(F)F)cc5)nc34)no2)cc1 [Example 14, 4-{3-[7-Trifluoromethyl-5-(4-trifluoromethyl-phenyl)-pyrazolo[1,5-a]pyrimidin-3-yl]-[1,2,4]oxadiazol-5-yl}-benzenesulfonamide] |
| 285 °C | NS(=O)(=O)c1cccc(-c2nc(-c3cnn4c(C(F)(F)F)cc(-c5ccc(C(F)(F)F)cc5)nc34)no2)c1 [Example 15, 3-{3-[7-Trifluoromethyl-5-(4-trifluoromethyl-phenyl)-pyrazolo[1,5-a]pyrimidin-3-yl]-[1,2,4]oxadiazol-5-yl}-benzenesulfonamide] |
| 250 °C | NS(=O)(=O)c1cccc(-c2noc(-c3cnn4c(C(F)(F)F)cc(-c5ccc(C(F)(F)F)c(OCC(F)(F)F)c5)nc34)n2)c1 [Example 16, 3-(5-{5-[3-(2,2,2-Trifluoro-ethoxy)-4-trifluoromethyl-phenyl]-7-trifluoromethyl-pyrazolo[1,5-a]pyrimidin-3-yl}-[1,2,4]oxadiazol-3-yl)-benzenesulfonamide] |
| 270 °C | Cc1cc(-c2cc(C(F)(F)F)n3ncc(-c4nc(-c5cccc(S(N)(=O)=O)c5)no4)c3n2)ccc1C(F)(F)F [Example 17, 3-{5-[5-(3-Methyl-4-trifluoromethyl-phenyl)-7-trifluoromethyl-pyrazolo[1,5-a]pyrimidin-3-yl]-[1,2,4]oxadiazol-3-yl}-benzenesulfonamide] |
| 273 °C | Cc1cc(-c2cc(C(F)(F)F)n3ncc(-c4nc(-c5ccc(S(N)(=O)=O)cc5)no4)c3n2)ccc1C(F)(F)F [Example 18, 4-{5-[5-(3-Methyl-4-trifluoromethyl-phenyl)-7-trifluoromethyl-pyrazolo[1,5-a]pyrimidin-3-yl]-[1,2,4]oxadiazol-3-yl}-benzenesulfonamide] |
| 231 °C | NS(=O)(=O)c1cccc(-c2noc(-c3cnn4c(C(F)F)cc(-c5ccc(Cl)cc5)nc34)n2)c1 [Example 19, 3-{5-[5-(4-Chloro-phenyl)-7-difluoromethyl-pyrazolo[1,5-a]pyrimidin-3-yl]-[1,2,4]oxadiazol-3-yl}-benzenesulfonamide] |
| 324 °C | Cc1cc(-c2cc(C(F)(F)F)n3ncc(-c4nc(-c5ccc(S(N)(=O)=O)s5)no4)c3n2)ccc1C(F)(F)F [Example 22, 5-{5-[5-(3-Methyl-4-trifluoromethyl-phenyl)-7-trifluoromethyl-pyrazolo[1,5-a]pyrimidin-3-yl]-[1,2,4]oxadiazol-3-yl}-thiophene-2-sulfonic acid amide] |
| 255 °C | NS(=O)(=O)c1ccc(-c2noc(-c3cnn4c(C(F)(F)F)cc(-c5ccc(C(F)(F)F)c(OCC(F)(F)F)c5)nc34)n2)s1 [Example 23, 5-(5-{5-[3-(2,2,2-Trifluoro-ethoxy)-4-trifluoromethyl-phenyl]-7-trifluoromethyl-pyrazolo[1,5-a]pyrimidin-3-yl}-[1,2,4]oxadiazol-3-yl)-thiophene-2-sulfonic acid amide] |
| 300 °C | NS(=O)(=O)c1ccc(-c2noc(-c3cnn4c(C(F)(F)F)cc(-c5cccc(C(F)(F)F)c5)nc34)n2)cc1 [Example 25, 4-{5-[7-Trifluoromethyl-5-(3-trifluoromethyl-phenyl)-pyrazolo[1,5-a]pyrimidin-3-yl]-[1,2,4]oxadiazol-3-yl}-benzenesulfonamide] |
| 251 °C | NS(=O)(=O)c1cccc(-c2noc(-c3cnn4c(C(F)(F)F)cc(-c5cccc(C(F)(F)F)c5)nc34)n2)c1 [Example 26, 3-{5-[7-Trifluoromethyl-5-(3-trifluoromethyl-phenyl)-pyrazolo[1,5-a]pyrimidin-3-yl]-[1,2,4]oxadiazol-3-yl}-benzenesulfonamide] |
| 294 °C | NS(=O)(=O)c1ccc(-c2noc(-c3cnn4c(C(F)(F)F)cc(-c5ccc(Cl)cc5)nc34)n2)s1 [Example 28, 5-{5-[5-(4-Chloro-phenyl)-7-trifluoromethyl-pyrazolo[1,5-a]pyrimidin-3-yl]-[1,2,4]oxadiazol-3-yl}-thiophene-2-sulfonic acid amide] |
| 259 °C | NS(=O)(=O)c1ccc(-c2noc(-c3cnn4c(C(F)F)cc(-c5ccc(Cl)cc5)nc34)n2)s1 [Example 29, 5-{5-[5-(4-Chloro-phenyl)-7-difluoromethyl-pyrazolo[1,5-a]pyrimidin-3-yl]-[1,2,4]oxadiazol-3-yl}-thiophene-2-sulfonic acid amide] |
| 253 °C | Cc1cc(-c2ccc(Cl)cc2)nc2c(-c3nc(-c4ccc(S(N)(=O)=O)s4)no3)cnn12 [Example 32, 5-{5-[5-(4-Chloro-phenyl)-7-methyl-pyrazolo[1,5-a]pyrimidin-3-yl]-[1,2,4]oxadiazol-3-yl}-thiophene-2-sulfonic acid amide] |
| 272 °C | NS(=O)(=O)c1ccc(-c2nc(-c3cnn4c(C(F)(F)F)cc(-c5ccc(C(F)(F)F)cc5)nc34)no2)s1 [Example 33, 5-{3-[7-Trifluoromethyl-5-(4-trifluoromethyl-phenyl)-pyrazolo[1,5-a]pyrimidin-3-yl]-[1,2,4]oxadiazol-5-yl}-thiophene-2-sulfonic acid amide] |
| 257 °C | Nc1ccc(-c2noc(-c3cnn4c(C(F)(F)F)cc(-c5ccc(C(F)(F)F)cc5)nc34)n2)cn1 [Example 35, 5-{5-[7-Trifluoromethyl-5-(4-trifluoromethyl-phenyl)-pyrazolo[1,5-a]pyrimidin-3-yl]-[1,2,4]oxadiazol-3-yl}-pyridin-2-ylamine] |
| 242 °C | Nc1ccc(-c2noc(-c3cnn4c(C(F)F)cc(-c5ccc(C(F)(F)F)cc5)nc34)n2)cn1 [Example 36, 5-{5-[7-Difluoromethyl-5-(4-trifluoromethyl-phenyl)-pyrazolo[1,5-a]pyrimidin-3-yl]-[1,2,4]oxadiazol-3-yl}-pyridin-2-ylamine] |
| 220 °C | Cc1cc(-c2cc(C(F)(F)F)n3ncc(-c4nc(-c5ccc(N)nc5)no4)c3n2)ccc1C(F)(F)F [Example 37, 5-{5-[5-(3-Methyl-4-trifluoromethyl-phenyl)-7-trifluoromethyl-pyrazolo[1,5-a]pyrimidin-3-yl]-[1,2,4]oxadiazol-3-yl}-pyridin-2-ylamine] |
| 275 °C | Cc1cc(-c2ccc(Cl)cc2)nc2c(-c3nc(-c4cccc(S(N)(=O)=O)c4)no3)cnn12 [Example 38, 3-{5-[5-(4-Chloro-phenyl)-7-methyl-pyrazolo[1,5-a]pyrimidin-3-yl]-[1,2,4]oxadiazol-3-yl}-benzenesulfonamide] |
| 311 °C | Cc1cc(-c2ccc(Cl)cc2)cn2c(-c3nc(-c4ccc(S(N)(=O)=O)cc4)no3)cnc12 [Example 39, 4-{5-[6-(4-Chloro-phenyl)-8-methyl-imidazo[1,2-a]pyridin-3-yl]-[1,2,4]oxadiazol-3-yl}-benzenesulfonamide] |
| 301 °C | Cc1cc(-c2ccc(Cl)cc2)cn2c(-c3nc(-c4cccc(S(N)(=O)=O)c4)no3)cnc12 [Example 40, 3-{5-[6-(4-Chloro-phenyl)-8-methyl-imidazo[1,2-a]pyridin-3-yl]-[1,2,4]oxadiazol-3-yl}-benzenesulfonamide] |
| 290 °C | Cc1cc(-c2ccc(C(F)(F)F)cc2)cn2c(-c3nc(-c4ccc(S(N)(=O)=O)cc4)no3)cnc12 [Example 43, 4-{5-[8-Methyl-6-(4-trifluoromethyl-phenyl)-imidazo[1,2-a]pyridin-3-yl]-[1,2,4]oxadiazol-3-yl}-benzenesulfonamide] |
| 326 °C | Cc1cc(-c2ccc(C(F)(F)F)cc2)cn2c(-c3nc(-c4cccc(S(N)(=O)=O)c4)no3)cnc12 [Example 44, 3-{5-[8-Methyl-6-(4-trifluoromethyl-phenyl)-imidazo[1,2-a]pyridin-3-yl]-[1,2,4]oxadiazol-3-yl}-benzenesulfonamide] |
| 285 °C | Cc1cc(-c2ccc(C(F)(F)F)cc2)cn2c(-c3nc(-c4ccc(S(N)(=O)=O)s4)no3)cnc12 [Example 45, 5-{5-[8-Methyl-6-(4-trifluoromethyl-phenyl)-imidazo[1,2-a]pyridin-3-yl]-[1,2,4]oxadiazol-3-yl}-thiophene-2-sulfonic acid amide] |
